Source: patent publication US12157730B2, “Heteroaryl derivative, method for producing same, and pharmaceutical composition comprising same as effective component” (VORONOI INC., priority 2019, dated 2024)

Target: T1, Ba/F3 cell EGFR Exon20 ins NPH (Homo sapiens, UniProt P00533, INS773NPH)
T1 construct: expressed in transfected cells; host or cells: Ba/F3
Experiment: Ba/F3 cell proliferation suppression, EGFR Exon20 ins NPH
Type: cell-based
Details: GI50 class; Ba/F3 cell line with NPH inserted at Exon20 of EGFR; 72 hours
Procedure, shortened: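 After 72 h compound exposure (twelve 3-fold steps, 0.3 nM–50 um final), live cells were measured by CellTiter-Glo luminescence and growth expressed as % of control to derive GI50. Cells were seeded at 3000–5000 per well a day earlier; Ba/F3 medium contained IL-3; three repeats.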

Compound	Ba/F3 (NPH) Activity
C=CC(=O)Nc1cc(Nc2cc(N3OCC[C@@H]3c3cccc(F)c3)ncn2)c(OC)cc1N1CCC(N2C[C@@H]3C[C@H]2CO3)CC1 [Example 244, N-(2-(4-((1S,4S)-2-oxa-5-azabicyclo[2.2.1]heptane-5-yl)piperidine-1-yl)-5-((6-((R)-3-(3-fluorophenyl)isoxazolidine-2-yl)pyrimidine-4-yl)amino)-4-methoxyphenyl) acrylamide]	A (GI50 < 50 nM)
C=CC(=O)Nc1cc(Nc2cc(N3OCC[C@@H]3c3cccc(F)c3Cl)ncn2)c(OC)cc1N1CCN(CC)CC1 [compound 559, N-(5-((6-((R)-3-(2-chloro-3-fluorophenyl)isoxazolidine-2-yl)pyrimidine-4-yl)amino)-2-(4-ethylpiperazine-1-yl)-4-methoxyphenyl) acrylamide]	A (GI50 < 50 nM)
C=CC(=O)Nc1cc(Nc2cc(N3OCC[C@@H]3c3ccc(F)c(Cl)c3)ncn2)c(OC)cc1N1CCC(N2CCN(C3CC3)CC2)CC1 [Example 59, N-(5-((6-((R)-3-(3-chloro-4-fluorophenyl)isoxazolidine-2-yl)pyrimidine-4-yl)amino)-2-(4-(4-cyclopropylpiperazine-1-yl)piperidine-1-yl)-4-methoxyphenyl) acrylamide;]	A (GI50 < 50 nM)
C=CC(=O)Nc1cc(Nc2cc(N3OCC[C@@H]3c3cccc(Cl)c3Cl)ncn2)c(OC)cc1N1CCC(N2CC[C@@H](N(C)C)C2)CC1 [compound 610, N-(5-((6-((R)-3-(2,3-dichlorophenyl)isoxazolidine-2-yl)pyrimidine-4-yl)amino)-2-(4-((R)-3-(dimethylamino)pyrolidine-1-yl)piperidine-1-yl)-4-methoxyphenyl) acrylamide]	B (50 nM ≤ GI50 < 500 nM)
C=CC(=O)Nc1cc(Nc2cc(N3OCC[C@@H]3c3ccc(F)c(Cl)c3F)ncn2)c(OC)cc1N1CCC(N2CCN(C3CC3)CC2)CC1 [Example 168]	A (GI50 < 50 nM)
C=CC(=O)Nc1cc(Nc2cc(N3OCC[C@@H]3c3cc(F)cc(Cl)c3)ncn2)c(OC)cc1N1CCC(N2C[C@@H]3CCN(C)[C@@H]3C2)CC1 [compound 540, N-(5-((6-((R)-3-(3-chloro-5-fluorophenyl)isoxazolidine-2-yl)pyrimidine-4-yl)amino)-4-methoxy-2-(4-((3aS,6aS)-1-methylhexahydropyrrolo [3,4-b]pyrrole-5(1H)-yl)piperidine-1-yl)phenyl)acrylamide]	A (GI50 < 50 nM)
C=CC(=O)Nc1cc(Nc2cc(N3OCC[C@@H]3c3ccccc3)ncn2)c(OC)cc1N1CCC(N2CCN(CC)CC2)CC1 [Example 55, N-(2-(4-(4-ethylpiperazine-1-yl)piperidine-1-yl)-4-methoxy-5-((6-((R)-3-phenylisoxazolidine-2-yl)pyrimidine-4-yl)amino)phenyl) acrylamide]	A (GI50 < 50 nM)
C=CC(=O)Nc1cc(Nc2cc(N3OCC[C@@H]3c3cccc(F)c3F)ncn2)c(OC)cc1N1CCC(N2CC3CCC(C2)N3C2CC2)CC1 [Example 135, N-(2-(4-(8-cyclopropyl-3,8-diazabicyclo[3.2.1]octan-3-yl)piperidine-1-yl)-5-((6-((R)-3-(2,3-difluorophenyl)isoxazolidine-2-yl)pyrimidine-4-yl)amino)-4-methoxyphenyl) acrylamide]	A (GI50 < 50 nM)
C=CC(=O)Nc1cc(Nc2cc(N3OCC[C@@H]3c3cccc4ccccc34)ncn2)c(OC)cc1N1CCN(C)CC1 [compound 441, N-(4-methoxy-2-(4-methylpiperazine-1-yl)-5-((6-((R)-3-(naphthalene-1-yl)isoxazolidine-2-yl)pyrimidine-4-yl)amino)phenyl) acrylamide]	B (50 nM ≤ GI50 < 500 nM)
C=CC(=O)Nc1cc(Nc2cc(N3OCC[C@@H]3c3cc(F)ccc3F)ncn2)c(OC)cc1N1CCN(C(C)=O)CC1 [compound 298, N-(2-(4-acetylpiperazine-1-yl)-5-((6-((R)-3-(2,5-difluorophenyl)isoxazolidine-2-yl)pyrimidine-4-yl)amino)-4-methoxyphenyl) acrylamide]	A (GI50 < 50 nM)
C=CC(=O)Nc1cc(Nc2cc(N3OCC[C@@H]3c3ccc4ccccc4c3)ncn2)c(OC)cc1N1CCC(N2CCN(C3CCC3)CC2)CC1 [Example 190, N-(2-(4-(4-cyclobutylpiperazine-1-yl)piperidine-1-yl)-4-methoxy-5-((6-((R)-3-(naphthalene-2-yl)isoxazolidine-2-yl)pyrimidine-4-yl)amino)phenyl)acrylamide]	B (50 nM ≤ GI50 < 500 nM)
C=CC(=O)Nc1cc(Nc2cc(N3OCC[C@@H]3c3c(F)ccc(F)c3F)ncn2)c(OC)cc1N1CCC(N2CCO[C@@H](C)C2)CC1 [compound 645, N-(4-methoxy-2-(4-((S)-2-methylmorpholino)piperidine-1-yl)-5-((6-((R)-3-(2,3,6-trifluorophenyl)isoxazolidine-2-yl)pyrimidine-4-yl)amino)phenyl)acrylamide]	A (GI50 < 50 nM)
C=CC(=O)Nc1cc(Nc2cc(N3OCC[C@@H]3c3ccc(F)c(F)c3)ncn2)c(OC)cc1N1CCC(N2CCN(CC)CC2)CC1 [compound 545, N-(5-((6-((R)-3-(3,4-difluorophenyl)isoxazolidine-2-yl)pyrimidine-4-yl)amino)-2-(4-(4-ethylpiperazine-1-yl)piperidine-1-yl)-4-methoxyphenyl) acrylamide]	A (GI50 < 50 nM)
C=CC(=O)Nc1cc(Nc2cc(N3OCC[C@@H]3c3ccc(Cl)c(Cl)c3F)ncn2)c(OC)cc1N1CCC(N2C[C@H]3C[C@@H]2CO3)CC1 [Example 268, N-(2-(4-((1R,4R)-2-oxa-5-azabicyclo[2.2.1]heptane-5-yl)piperidine-1-yl)-5-((6-((R)-3-(3,4-dichloro-2-fluorophenyl)isoxazolidine-2-yl)pyrimidine-4-yl)amino)-4-methoxyphenyl) acrylamide]	A (GI50 < 50 nM)
C=CC(=O)Nc1cc(Nc2cc(N3OCC[C@@H]3c3cc(F)cc(Cl)c3)ncn2)c(OC)cc1N1CCC(N2CCO[C@@H](C)C2)CC1 [compound 595, N-(5-((6-((R)-3-(3-chloro-5-fluorophenyl)isoxazolidine-2-yl)pyrimidine-4-yl)amino)-4-methoxy-2-(4-((S)-2-methylmorpholino)piperidine-1-yl)phenyl) acrylamide]	A (GI50 < 50 nM)

The next lines start with the values.

Ba/F3 (NPH) Activity	Compound
A (GI50 < 50 nM)	C=CC(=O)Nc1cc(Nc2cc(N3OCC[C@@H]3Cc3cccc(Cl)c3Cl)ncn2)c(OC)cc1N(C)CCN(C)C [compound 982, N-(5-((6-((S)-3-(2,3-dichlorobenzyl)isoxazolidine-2-yl)pyrimidine-4-yl)amino)-2-((2-(dimethylamino)ethyl)(methyl)amino)-4-methoxyphenyl) acrylamide]
A (GI50 < 50 nM)	C=CC(=O)Nc1cc(Nc2cc(N3OCC[C@@H]3c3ccc(F)c(Cl)c3)ncn2)c(OC)cc1N(C)CCOC [compound 904, N-(5-((6-((R)-3-(3-chloro-4-fluorophenyl)isoxazolidine-2-yl)pyrimidine-4-yl)amino)-4-methoxy-2-((2-methoxyethyl)(methyl)amino)phenyl) acrylamide]
A (GI50 < 50 nM)	C#Cc1cccc([C@H]2CCON2c2cc(Nc3cc(NC(=O)C=C)c(N4CCC(N5CCN(C)CC5)CC4)cc3OC)ncn2)c1 [compound 649, N-(5-((6-((R)-3-(3-ethynylphenyl)isoxazolidine-2-yl)pyrimidine-4-yl)amino)-4-methoxy-2-(4-(4-methylpiperazine-1-yl)piperidine-1-yl)phenyl) acrylamide]
A (GI50 < 50 nM)	C=CC(=O)Nc1cc(Nc2cc(N3OCC[C@@H]3Cc3cccc(Cl)c3Cl)ncn2)c(OC)cc1N1CC[C@@H](N(C)C)C1 [compound 984, N-(5-((6-((S)-3-(2,3-dichlorobenzyl)isoxazolidine-2-yl)pyrimidine-4-yl)amino)-2-((R)-3-(dimethylamino)pyrolidine-1-yl)-4-methoxyphenyl) acrylamide]
A (GI50 < 50 nM)	C=CC(=O)Nc1cc(Nc2cc(N3OCC[C@@H]3Cc3ccccc3)ncn2)c(OC)cc1N(C)CCN(C)C [compound 947, N-(5-((6-((S)-3-benzylisoxazolidine-2-yl)pyrimidine-4-yl)amino)-2-((2-(dimethylamino)ethyl)(methyl)amino)-4-methoxyphenyl) acrylamide]
A (GI50 < 50 nM)	C=CC(=O)Nc1cc(Nc2cc(N3OCC[C@@H]3c3cccc(F)c3F)ncn2)c(OC)cc1N1CC[C@@H](N(C)C)C1 [compound 927, N-(5-((6-((R)-3-(2,3-difluorophenyl)isoxazolidine-2-yl)pyrimidine-4-yl)amino)-2-((R)-3-(dimethylamino)pyrolidine-1-yl)-4-methoxyphenyl) acrylamide]
B (50 nM ≤ GI50 < 500 nM)	C=CC(=O)Nc1cc(Nc2cc(N3OCC[C@@H]3c3ccccc3)ncn2)c(OC)cc1N1CCC(N2CCN(CCN(C)C)CC2)CC1 [compound 739, N-(2-(4-(4-(2-(dimethylamino)ethyl)piperazine-1-yl)piperidine-1-yl)-4-methoxy-5-((6-((R)-3-phenylisoxazolidine-2-yl)pyrimidine-4-yl)amino)phenyl) acrylamide]
B (50 nM ≤ GI50 < 500 nM)	C=CC(=O)Nc1cc(Nc2cc(N3OCC[C@@H]3c3ccc(Cl)c(Cl)c3F)ncn2)c(OC)cc1N1CCC(N2CC[C@H](N(C)C)C2)CC1 [compound 772, N-(5-((6-((R)-3-(3,4-dichloro-2-fluorophenyl)isoxazolidine-2-yl)pyrimidine-4-yl)amino)-2-(4-((S)-3-(dimethylamino)pyrolidine-1-yl)piperidine-1-yl)-4-methoxyphenyl) acrylamide]
